This test relates to L1210 leukemia ip in BDF1 mice, survival T/C. Description: NCI In Vivo Anticancer Drug Screen. Data for tumor model L1210 Leukemia (intraperitoneal) in B6D2F1 (BDF1) mice. The following applies: higher = longer survival. Put shortly:
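In this screen, tumor-bearing mice given compound are compared to those given vehicle, and their survival values are reported as a treated-to-control quotient.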

Setting [1] is: endpoint: mean survival time, dose: 5.0 mg/kg/injection, schedule: Q01DX001 (ip), vehicle: saline.
Setting [2] is: endpoint: mean survival time, dose: 10.0 mg/kg/injection, schedule: Q01DX001 (ip), vehicle: saline.
Where [3] appears, read: endpoint: mean survival time, dose: 20.0 mg/kg/injection, schedule: Q01DX001 (ip), vehicle: saline.
The mark [4] stands for this setting: endpoint: mean survival time, dose: 100.0 mg/kg/injection, schedule: Q01DX009 (ip), vehicle: saline with Tween-80.
The mark [5] stands for this setting: endpoint: mean survival time, dose: 100.0 mg/kg/injection, schedule: Q04DX003 (ip), vehicle: saline with Tween-80.
Setting [6] is: endpoint: mean survival time, dose: 200.0 mg/kg/injection, schedule: Q01DX009 (ip), vehicle: saline with Tween-80.
[7] abbreviates: endpoint: mean survival time, dose: 200.0 mg/kg/injection, schedule: Q04DX003 (ip), vehicle: saline with Tween-80.
The mark [8] stands for this setting: endpoint: mean survival time, dose: 400.0 mg/kg/injection, schedule: Q01DX009 (ip), vehicle: saline with Tween-80.
Where [9] appears, read: endpoint: mean survival time, dose: 400.0 mg/kg/injection, schedule: Q04DX003 (ip), vehicle: saline with Tween-80.
Setting [10] is: endpoint: mean survival time, dose: 100.0 mg/kg/injection, schedule: Q04DX002 (ip), vehicle: Klucel (hydroxypropylcellulose) (HPC).
Setting [11] is: endpoint: mean survival time, dose: 200.0 mg/kg/injection, schedule: Q04DX002 (ip), vehicle: Klucel (hydroxypropylcellulose) (HPC).
The mark [12] stands for this setting: endpoint: mean survival time, dose: 400.0 mg/kg/injection, schedule: Q04DX002 (ip), vehicle: Klucel (hydroxypropylcellulose) (HPC).
Where [13] appears, read: endpoint: mean survival time, dose: 100.0 mg/kg/injection, schedule: Q01DX001 (ip), vehicle: other.
Setting [14] is: endpoint: mean survival time, dose: 200.0 mg/kg/injection, schedule: Q01DX001 (ip), vehicle: other.
The mark [15] stands for this setting: endpoint: mean survival time, dose: 400.0 mg/kg/injection, schedule: Q01DX001 (ip), vehicle: other.

Several values for one entry are separate records, joined by “and”; a condition that tells them apart may be missing. Equal entries are not always repeated. Toxic doses and inconclusive results are not listed. Peptide text beside a SMILES is read from it. * marks the point of attachment. ONp = O=[N+]([O-])c1ccc(O*)cc1; Cbz = O=C(OCc1ccccc1)*

With `NC(=O)c1[nH]nc(C2OC(CO)C(O)C2O)c1O` (stereo not given), the T/C is, setting by setting: (endpoint: mean survival time, dose: 2.5 mg/kg/injection, schedule: Q01DX009 (ip), vehicle: saline) 115 % of control; (endpoint: mean survival time, dose: 2.5 mg/kg/injection, schedule: Q04DX003 (ip), vehicle: saline) 110 % of control; under setting [1], 109 % of control; (endpoint: mean survival time, dose: 5.0 mg/kg/injection, schedule: Q01DX009 (ip), vehicle: saline) 96 % of control; (endpoint: mean survival time, dose: 5.0 mg/kg/injection, schedule: Q04DX003 (ip), vehicle: saline) 111 % of control and 123 % of control; (endpoint: mean survival time, dose: 6.6 mg/kg/injection, schedule: Q04DX003 (ip), vehicle: saline) 107 % of control. Further, the T/C is 113 % of control under setting [2]; 113 % of control and 121 % of control (endpoint: mean survival time, dose: 10.0 mg/kg/injection, schedule: Q04DX003 (ip), vehicle: saline); 111 % of control under setting [3]; 121 % of control (endpoint: mean survival time, dose: 20.0 mg/kg/injection, schedule: Q04DX003 (ip), vehicle: saline); 108 % of control (endpoint: median survival time, dose: 0.5 mg/kg/injection, schedule: Q04DX003 (ip), vehicle: saline); 106 % of control and 107 % of control (endpoint: median survival time, dose: 1.0 mg/kg/injection, schedule: Q04DX003 (ip), vehicle: saline). Moreover, the T/C is, setting by setting: (endpoint: median survival time, dose: 2.0 mg/kg/injection, schedule: Q04DX003 (ip), vehicle: saline) 107 % of control and 112 % of control; (endpoint: median survival time, dose: 4.0 mg/kg/injection, schedule: Q04DX003 (ip), vehicle: saline) 109 % of control and 118 % of control; (endpoint: median survival time, dose: 8.0 mg/kg/injection, schedule: Q04DX003 (ip), vehicle: saline) 112 % of control and 121 % of control.
Consider `O=C(CNC(=O)OCc1ccccc1)NCC(=O)Oc1ccc([N+](=O)[O-])cc1` (Cbz-Gly-Gly-ONp), for which the T/C under setting [4] was 108 % of control; the T/C under setting [5] is 92 % of control; the T/C under setting [6] was 105 % of control; the T/C under setting [7] is 94 % of control; the T/C under setting [8] was 100 % of control; the T/C under setting [9] is 92 % of control.
On to `[O-]/[N+](=C\c1ccc(/C=[N+](\[O-])c2ccccc2)cc1)c1ccccc1`, for which the T/C is 97 % of control under setting [1]; 95 % of control under setting [2]; 97 % of control under setting [3]; 92 % of control (endpoint: mean survival time, dose: 40.0 mg/kg/injection, schedule: Q01DX001 (ip), vehicle: saline); 97 % of control (endpoint: mean survival time, dose: 80.0 mg/kg/injection, schedule: Q01DX001 (ip), vehicle: saline).
`CC(=O)OCC1OC(OCC2OC(Sc3ccccc3)C(OC(C)=O)C(OC(C)=O)C2OC(C)=O)C(OC(C)=O)C(OC(C)=O)C1OC(C)=O` (stereo not given): the T/C under setting [10] is 89 % of control, the T/C under setting [11] is 86 % of control and the T/C under setting [12] is 86 % of control.
For the compound `CC12CCC(C1)C(C)(C)/C2=N\O` (stereo not given), the T/C (endpoint: mean survival time, dose: 100.0 mg/kg/injection, schedule: Q01DX009 (ip), vehicle: Klucel (hydroxypropylcellulose) (HPC)) is 96 % of control; the T/C under setting [10] was 100 % of control; the T/C (endpoint: mean survival time, dose: 200.0 mg/kg/injection, schedule: Q01DX009 (ip), vehicle: Klucel (hydroxypropylcellulose) (HPC)) is 88 % of control; the T/C under setting [11] is 96 % of control; the T/C (endpoint: mean survival time, dose: 400.0 mg/kg/injection, schedule: Q01DX009 (ip), vehicle: Klucel (hydroxypropylcellulose) (HPC)) was 92 % of control; the T/C under setting [12] was 96 % of control.
Turning to `Cn1cnc([N+](=O)[O-])c1[Se]c1nc(N)nc2c1ncn2C1OC(CO)C(O)C1O` (stereo not given), the T/C by setting is: (endpoint: mean survival time, dose: 12.5 mg/kg/injection, schedule: Q01DX009 (ip), vehicle: saline) 161 % of control and 165 % of control; (endpoint: mean survival time, dose: 25.0 mg/kg/injection, schedule: Q01DX009 (ip), vehicle: saline) 189 % of control and 201 % of control; (endpoint: mean survival time, dose: 50.0 mg/kg/injection, schedule: Q01DX009 (ip), vehicle: saline) 203 % of control and 255 % of control.
In the case of `CCOC(=O)C(COC)C(C(=O)CC)C(=O)OCC` (stereo not given), the T/C is 102 % of control under setting [13], 89 % of control under setting [14] and 96 % of control under setting [15].
Take `CCOC(=O)c1c(-c2cc(OC)c(OC)c(OC)c2)csc1NC(=O)c1ccccc1`: the T/C is 89 % of control (endpoint: mean survival time, dose: 50.0 mg/kg/injection, schedule: Q04DX003 (ip), vehicle: saline with Tween-80); 105 % of control under setting [5]; 90 % of control under setting [7]; 90 % of control under setting [9].
Take `COCCNP(=S)(OC)OC`: the T/C under setting [4] was 93 % of control; the T/C under setting [5] is 101 % of control; the T/C under setting [6] was 95 % of control; the T/C under setting [7] was 106 % of control; the T/C under setting [8] was 101 % of control; the T/C under setting [9] is 92 % of control.
On to `CN(C)S(=O)(=O)c1ccc(N=NN2CCOCC2)cc1`, for which the T/C (endpoint: mean survival time, dose: 100.0 mg/kg/injection, schedule: Q04DX002 (ip), vehicle: saline with Tween-80) was 115 % of control; the T/C (endpoint: mean survival time, dose: 200.0 mg/kg/injection, schedule: Q04DX002 (ip), vehicle: saline with Tween-80) is 97 % of control; the T/C (endpoint: mean survival time, dose: 400.0 mg/kg/injection, schedule: Q04DX002 (ip), vehicle: saline with Tween-80) is 108 % of control.
Consider `O=C1OC(c2ccccc2)=N/C1=C\c1cccnc1`, for which the T/C is 90 % of control (endpoint: mean survival time, dose: 50.0 mg/kg/injection, schedule: Q04DX002 (ip), vehicle: Klucel (hydroxypropylcellulose) (HPC)); 96 % of control under setting [10]; 86 % of control under setting [11]; 86 % of control under setting [12].
With `O=C(NC1CCCC2C(NC(=O)c3ccccc3)CCCC12)c1ccccc1` (stereo not given), the T/C is, setting by setting: (endpoint: mean survival time, dose: 100.0 mg/kg/injection, schedule: Q01DX001 (ip), vehicle: saline) 91 % of control; under setting [4], 89 % of control; (endpoint: mean survival time, dose: 100.0 mg/kg/injection, schedule: Q04DX003 (ip), vehicle: saline) 92 % of control; (endpoint: mean survival time, dose: 200.0 mg/kg/injection, schedule: Q01DX001 (ip), vehicle: saline) 91 % of control; under setting [6], 89 % of control; (endpoint: mean survival time, dose: 200.0 mg/kg/injection, schedule: Q04DX003 (ip), vehicle: saline) 91 % of control. In addition, the T/C was 94 % of control (endpoint: mean survival time, dose: 400.0 mg/kg/injection, schedule: Q01DX001 (ip), vehicle: saline); 95 % of control under setting [8]; 86 % of control (endpoint: mean survival time, dose: 400.0 mg/kg/injection, schedule: Q04DX003 (ip), vehicle: saline).
Turning to `CSc1nsc(N)n1`, the T/C reads like this: (endpoint: mean survival time, dose: 75.0 mg/kg/injection, schedule: Q01DX001 (ip), vehicle: other) 102 % of control; (endpoint: mean survival time, dose: 100.0 mg/kg/injection, schedule: Q04DX003 (ip), vehicle: Klucel (hydroxypropylcellulose) (HPC)) 100 % of control; (endpoint: mean survival time, dose: 150.0 mg/kg/injection, schedule: Q01DX001 (ip), vehicle: other) 100 % of control; (endpoint: mean survival time, dose: 200.0 mg/kg/injection, schedule: Q04DX003 (ip), vehicle: Klucel (hydroxypropylcellulose) (HPC)) 100 % of control; (endpoint: mean survival time, dose: 300.0 mg/kg/injection, schedule: Q01DX001 (ip), vehicle: other) 103 % of control; (endpoint: mean survival time, dose: 400.0 mg/kg/injection, schedule: Q04DX003 (ip), vehicle: Klucel (hydroxypropylcellulose) (HPC)) 107 % of control.
Consider `Cc1cccc(N=C(N)N=C(N)N)c1`, for which the T/C is, setting by setting: under setting [5], 102 % of control; under setting [7], 88 % of control.
Consider `N=c1ncn(C2OC(CO[P+](N)(O)O)C(O)C2O)c2nc[nH]c12` (stereo not given), for which the T/C is, setting by setting: (endpoint: mean survival time, dose: 12.5 mg/kg/injection, schedule: Q01DX005 (ip), vehicle: water) 110 % of control; (endpoint: mean survival time, dose: 25.0 mg/kg/injection, schedule: Q01DX005 (ip), vehicle: water) 106 % of control.
Turning to `O=C(O)c1cc(-c2ccc(N(CCCl)CCCl)cc2)nc2ccccc12`, the T/C by setting is: under setting [13], 104 % of control; under setting [14], 104 % of control; under setting [15], 96 % of control.

The values are drawn from PubChem BioAssay AID248 (DTP/NCI, 2004).
